Literature values as cited in patent US6753016B2, “Preservation of wood products” (Rohm and Haas Company, priority 2001, dated 2004).

Conditions: aqueous treatment of wood surfaces; compared to conventional chromium(VI) treatment

[Cl][Fe]([Cl])[Cl] [ferric chloride]
protective effect on treated wood in weathering: does not have a protective effect
